{
  "source": "paper PMC9107402",
  "about": "(European Journal of Clinical Pharmacology, 2022)",
  "key": {"[1]": {"conditions": "cited from earlier work"}, "[2]": {"test_system": "CYP3A", "experiment": "Calculated metabolic clearance of microdosed midazolam (limited sampling AUC 2-4 h)", "conditions": "for midazolam metabolic clearance, % of the baseline value: during fluconazole", "procedure": "(§1) Blood samples were centrifuged for 10 min at 2500 g and 4 °C, and separated plasma was distributed into 4 aliquots, each stored at − 20 °C until analysis.\nMidazolam concentrations in plasma were determined by UPLC-MS/MS."}, "[3]": {"test_system": "CYP3A4", "conditions": "cited from earlier work"}, "[4]": {"conditions": "alteration of gastric pH; cited from earlier work"}, "[5]": {"test_system": "CYP2C19", "experiment": "clinical", "conditions": "human, in vivo; for Cl/F / Tmax: po", "procedure": "This was an open-label clinical trial with fixed sequence design consisting of a total of seven inpatient study days and eight short visits for each participant.\nThe CYP2C19 perpetrator fluconazole (Fluconazol HEXAL® 200 mg, HEXAL) was given for 5 days in oral doses of 400 mg on day 1 and 200 mg on days 2 to 5. […] A diary was used to ensure correct intake of fluconazole and rifampicin at home.\nas §1\nThe statistical analysis was performed using Prism 8.4 (GraphPad Software Inc., La Jolla, CA, USA)."}, "[6]": {"test_system": "CYP2C19", "conditions": "cited from earlier work"}},
  "note": "Like-named read-outs stand apart in the source and are kept apart here.",
  "data": [
    {"smiles": "OC(Cn1cncn1)(Cn1cncn1)c1ccc(F)cc1F", "note": "[fluconazole]", "values": [
      {"measurement": "effect of changes in gastric pH on fluconazole Cmax, tmax, and AUC", "setting": "[1]", "value": "did not affect"}
    ]},
    {"smiles": "Cc1ncc2n1-c1ccc(Cl)cc1C(c1ccccc1F)=NC2", "note": "[midazolam]", "values": [
      {"measurement": "midazolam metabolic clearance, % of the baseline value", "setting": "[2]; with 100 µg omeprazole", "value": 28, "unit": "%"},
      {"measurement": "midazolam metabolic clearance, % of the baseline value", "setting": "[2]; with 20 mg omeprazole", "value": 26, "unit": "%"},
      {"measurement": "increase of midazolam metabolic clearance", "setting": "[2]; during rifampicin", "value": "10–12 fold"},
      {"measurement": "increase of midazolam metabolic clearance", "setting": "[2]; rifampicin day 5", "value": 10.1, "unit": "fold"},
      {"measurement": "increase of midazolam metabolic clearance", "setting": "[2]; rifampicin day 7", "value": 11.9, "unit": "fold"},
      {"measurement": "midazolam AUC decrease to % of the baseline value", "setting": "[3]; 600 mg rifampicin daily over 5 days", "value": 4.1, "unit": "%"},
      {"measurement": "increase of midazolam AUC", "setting": "[3]; oral 7.5 mg midazolam during fluconazole treatment", "value": 3.6, "unit": "fold"}
    ]},
    {"smiles": "Cc1c(O)cccc1C(=O)N[C@@H](CSc1ccccc1)[C@H](O)CN1C[C@H]2CCCC[C@H]2C[C@H]1C(=O)NC(C)(C)C", "note": "[nelfinavir]", "values": [
      {"measurement": "reduction of nelfinavir AUC by omeprazole", "setting": "[4]", "value": "approximately one third"},
      {"measurement": "reduction of nelfinavir Cmax by omeprazole", "setting": "[4]", "value": "approximately one third"}
    ]},
    {"smiles": "COc1ccc2[nH]c([S+]([O-])Cc3ncc(C)c(OC)c3C)nc2c1", "note": "(stereo not shown) [omeprazole]", "values": [
      {"measurement": "dose-normalized Cmax", "setting": "[5]", "value": 896, "unit": "ng/mL"},
      {"measurement": "clearance", "setting": "[5]; 100 ug, omeprazole clearance", "value": 476, "unit": "mL/min"},
      {"measurement": "higher AUC in the poor metabolizer in comparison with the EM group", "setting": "[5]; 20 mg", "value": 6.5, "unit": "fold"},
      {"measurement": "higher Cmax in the poor metabolizer in comparison with the EM group", "setting": "[5]; 20 mg", "value": "threefold"},
      {"measurement": "Cl/F", "setting": "[5]; 100 ug", "value": 379, "unit": "mL/min"},
      {"measurement": "Tmax", "setting": "[5]; 100 ug", "value": 21.8, "unit": "min"},
      {"measurement": "Tmax", "setting": "[5]; 100 ug, tmax (harmonic mean)", "value": 15, "unit": "min"},
      {"measurement": "Cl/F", "setting": "[5]; 20 mg", "value": 388, "unit": "mL/min"},
      {"measurement": "Tmax", "setting": "[5]; 20 mg, tmax (harmonic mean)", "value": 178, "unit": "min"},
      {"measurement": "increase of omeprazole AUC", "setting": "[6]; 100 mg fluconazole daily for 5 days, healthy volunteers", "value": "sixfold"},
      {"measurement": "increase of omeprazole AUC", "setting": "[6]; 8 days of 50 mg fluconazole daily", "value": "2.7–2.8 fold"},
      {"measurement": "omeprazole AUC decreased to", "setting": "[6]; rifampicin 150 mg, 8 days, omeprazole microdose", "value": 22, "unit": "%"},
      {"measurement": "omeprazole AUC decreased to", "setting": "[6]; rifampicin 150 mg, 9 days, 20 mg omeprazole", "value": 20, "unit": "%"},
      {"measurement": "omeprazole AUC decreased to", "setting": "[6]; rifampicin 6 days, 450 mg daily, 20 mg omeprazole", "value": 12.9, "unit": "%"},
      {"measurement": "bioequivalence to an encapsulated formulation", "setting": "[6]; uncoated omeprazole with 48 mmol sodium bicarbonate", "value": "bioequivalent"}
    ]}
  ]
}
